Results reported in patent US8853234B2, “Quinolone analogs and methods related thereto” (Senhwa Biosciences, Inc., priority 2007, dated 2014).
Read-outs that look alike come from different tables or passages of the source.

Tested on: a variety of cell types that are representative of different cancers
Experiment: Alamar Blue cell viability assay, variety of cell types representative of different cancers (Tables 12-14)
Assay type: cell-based
Details: Homo sapiens
Experimental: A representative cell-proliferation assay protocol using Alamar Blue dye (stored at 4° C., use 20 ul per well) is described hereafter.
96-Well Plate Setup and Compound Treatment
a. Split and trypsinize cells.
b. Count cells using hemocytometer.
c. Plate 4,000-5,000 cells per well in 100 μl of medium and seed into a 96-well plate according to the following plate layout. Add cell culture medium only to wells B10 to B12. Wells B1 to B9 have cells but no compound added.
d. Add 100 μl of 2× drug dilution to each well in a concentration shown in the plate layout above. At the same time, add 100 μl of media into the control wells (wells B10 to B12). Total volume is 200 μl/well.
e. Incubate four (4) days at 37° C., 5% CO2 in a humidified incubator.
f. Add 20 μl Alamar Blue reagent to each well.
g. Incubate for four (4) hours at 37° C., 5% CO2 in a humidified incubator.
h. Record fluorescence at an excitation wavelength of 544 nm and emission wavelength of 590 nm using a microplate reader.
In the assays, cells are cultured with a test compound for approximately four days, the dye then is added to the cells and fluorescence of […] dye is detected after approximately four hours. Different types of cells can be utilized in the assays (e.g., HCT-116 human colorectal carcinoma cells, PC-3 human prostatic cancer cells and MiaPaca human pancreatic carcinoma cells). Anti-proliferative effects of representative compounds are provided hereafter.
(§1) Inhibitory activity on cell proliferation of Compounds A1, A2 and A3 was determined using an Alamar Blue cell viability assay (e.g., Example 39 herein) using a variety of cell types that are representative of different cancers Inhibition values (IC50) are presented in micromolar concentrations in the following table (Table 12).
as §1, with “representative compounds of the invention” for “Compounds A1, A2 and A3”, “Table 13 and Table 14.” for “the following table (Table 12).”

[1] = K562, K-562 cells, Table 14, read-out: AB: K-562 (IC50)
[2] = MIA PaCa-2, MiaPaCa cells, Table 14, read-out: AB: MiaPaCa (IC50)
[3] = MV4-11, MV-4-11 cells, Table 14, read-out: AB: MV-4-11 (IC50)
[4] = PC-3, PC3 cells, Table 14, read-out: AB: PC3 (IC50)
[5] = THP-1, THP-1 cells, Table 14, read-out: AB: THP-1 (IC50)
[6] = HCT-116, HCT-116 cells, Table 13, read-out: AB: HCT-116 (IC50)
[7] = PC-3, PC3 cells, Table 13, read-out: AB: PC3 (IC50)
[8] = K562, K-562 cells, Table 13, read-out: AB: K-562 (IC50)
[9] = MV4-11, MV-4-11 cells, Table 13, read-out: AB: MV-4-11 (IC50)

| IC50 [1] [nM] | IC50 [2] [nM] | IC50 [3] [nM] | IC50 [4] [nM] | IC50 [5] [nM] | IC50 [6] [nM] | IC50 [7] [nM] | IC50 [8] [nM] | IC50 [9] [nM] | SMILES |
| --- | --- | --- | --- | --- | --- | --- | --- | --- | --- |
| – | – | – | – | – | 267 | 633 | – | – | CN1CCCCC1CNC(=O)c1c(=O)c2ccc(NCC(O)c3ccccc3)nc2n2c1sc1ccccc12 (stereo not shown) |
| – | – | – | – | – | 2510 | 6670 | 3130 | 543 | CN1CCN(C(=O)c2c(=O)c3ccc(NCC(O)c4ccccc4)nc3n3c2sc2ccccc23)CC1 (stereo not shown) |
| – | – | – | – | – | > 10000 | 6080 | > 10000 | 5030 | O=C(NCC1CC1)c1c(=O)c2ccc(NCC(O)c3ccccc3)nc2n2c1sc1ccccc12 (stereo not shown) |
| – | – | – | – | – | > 10000 | > 10000 | > 10000 | > 10000 | O=C(NC1CC1)c1c(=O)c2ccc(NCC(O)c3ccccc3)nc2n2c1sc1ccccc12 (stereo not shown) |

Further lines, the compound ahead of its results:

| SMILES | IC50 [1] [nM] | IC50 [2] [nM] | IC50 [3] [nM] | IC50 [4] [nM] | IC50 [5] [nM] | IC50 [6] [nM] | IC50 [7] [nM] | IC50 [8] [nM] | IC50 [9] [nM] |
| --- | --- | --- | --- | --- | --- | --- | --- | --- | --- |
| CN1CCCN(c2nc3c(cc2F)c(=O)c(C(=O)NCc2cccnc2)c2sc4ccccc4n23)CC1 | 32 | 133 | < 30 | 2480 | 356 | – | – | – | – |
| CN1CCCN(c2nc3c(cc2F)c(=O)c(C(=O)NCc2ccccn2)c2sc4ccccc4n23)CC1 | 118 | 941 | 43 | 7770 | 1330 | – | – | – | – |
| Cc1cnc(CNC(=O)c2c(=O)c3ccc(N4CCCNCC4)nc3n3c2sc2ccccc23)cn1 | 101 | 637 | 84 | – | – | – | – | – | – |
| CN1CCCN(c2nc3c(cc2F)c(=O)c(C(=O)NCc2ccncc2)c2sc4ccccc4n23)CC1 | 95 | 131 | < 30 | 6590 | 1060 | – | – | – | – |
| CN1CCCN(c2nc3c(cc2F)c(=O)c(C(=O)N2CCOCC2)c2sc4ccccc4n23)CC1 | 110 | 352 | < 30 | 1210 | 590 | – | – | – | – |
| COCCNC(=O)c1c(=O)c2ccc(NCC(O)c3ccccc3)nc2n2c1sc1ccccc12 (stereo not shown) | – | – | – | – | – | 133 | 3740 | – | – |
| CN1CCCN(c2nc3c(cc2F)c(=O)c(C(=O)NCCCO)c2sc4ccccc4n23)CC1 | 51 | < 120 | 32 | 2640 | 571 | – | – | – | – |
| CN1CCCN(c2nc3c(cc2F)c(=O)c(C(=O)NN2CCOCC2)c2sc4ccccc4n23)CC1 | 267 | 359 | 124 | 1800 | 1320 | – | – | – | – |
